Reference: US20160220464A1 (WUHAN OPTICS VALLEY BRIDGEBIOMED INTERNATIONAL CORPORATION, priority 2013, published 2016)
Like-named read-outs stand apart in the source and are kept apart here. Where no end group is shown, it is not given here.

Key:
Format in all cases: cell-based
[1] = biological target: T1, bradykinin (BK) B2 receptors (Homo sapiens, UniProt P30411); assay: PG secretion by BK B2 receptor agonists (PG kit, OD), EC50 and Emax; conditions: HASMC; for EC50: 1 h incubation at 37° C.
T1 construct: The cell strains used in the study were human primary vein endothelial cells (HPVEC) and human aortic smooth muscle cells (HASMC); endogenous in cells; host or cells: human primary vein endothelial cells (HPVEC) and human aortic smooth muscle cells (HASMC)
T1 sequence (P30411 1-391): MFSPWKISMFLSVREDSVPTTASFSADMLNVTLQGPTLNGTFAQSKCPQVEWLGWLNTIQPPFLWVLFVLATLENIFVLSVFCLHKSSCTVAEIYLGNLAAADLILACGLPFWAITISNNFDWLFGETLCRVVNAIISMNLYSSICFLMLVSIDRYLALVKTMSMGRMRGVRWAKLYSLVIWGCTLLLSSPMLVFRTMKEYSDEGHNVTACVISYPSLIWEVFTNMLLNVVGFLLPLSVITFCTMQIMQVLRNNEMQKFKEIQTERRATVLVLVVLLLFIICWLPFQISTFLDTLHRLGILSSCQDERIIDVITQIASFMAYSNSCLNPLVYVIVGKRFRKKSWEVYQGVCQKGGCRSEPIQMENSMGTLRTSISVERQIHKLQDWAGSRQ
Method: Implantation Two cell lines were transferred into T-75 cell culture flask, and then the instructions of PG kit were strictly followed when cells have reached the appropriate density. Day 1 Cells were seeded in 24 well dishes with minimum medium and allowed to adhere overnight. Day 2 Cells were starved in the serum-free conditioned medium. Day 3 Minimum medium were used, and YLB-01, YLB-02 and YLB-03 were added to the medium, in which the concentration was 0.1 nM, 1 nM, 10 nM, 30 nM, 100 nM, 300 nM, 1 μM, 3 μM and 10 μM, respectively; the cells were incubated at 37° C. for 1 h. The supernatant was collected after incubation for later use. Day 4 24 well dishes were washed and then dyed for 45-90 min, and then the OD value was measured for analysis. The cell strains used in the study were human primary vein endothelial cells (HPVEC) and human aortic smooth muscle cells (HASMC).

[2] = biological target: T2, BK B2 receptor (Homo sapiens, UniProt P30411); assay: Relative amount of PG secretion in cell supernatant by enzyme immunoassay (EIA); conditions: 1 h, 1 μM BK set as 100%; for activation at 0.0001 µM: 0.1 nM; for activation at 0.001 µM: 1 nM; for activation at 0.01 µM: 10 nM; for activation at 0.03 µM: 30 nM; for activation at 0.1 µM: 100 nM; for activation at 0.3 µM: 300 nM
T2 construct: The cell strains used in the study were human primary vein endothelial cells (HPVEC) and human aortic smooth muscle cells (HASMC); endogenous in cells; host or cells: human primary vein endothelial cells (HPVEC) and human aortic smooth muscle cells (HASMC)
T2 sequence (P30411 1-391): T1 sequence (P30411 1-391)
Method: YLB-01, YLB-02 and YLB-03 were selected for the study as described below in Table 1, and BK was used as control. Implantation Two cell lines were transferred into T-75 cell culture flask, and then the instructions of PG kit were strictly followed when cells have reached the appropriate density. Day 1 Cells were seeded in 24 well dishes with minimum medium and allowed to adhere overnight. Day 2 Cells were starved in the serum-free conditioned medium. […] The supernatant was collected after incubation for later use. Day 4 24 well dishes were washed and then dyed for 45-90 min, and then the OD value was measured for analysis. […] In order to detect endogenous prostaglandin, enzyme immunoassay (EIA) was used to determine the amount of prostaglandin and subtypes thereof in the cell supernatant described above.

[3] = biological target: T3, B2 receptor (Homo sapiens, UniProt P30411); assay: Relative PG secretion with B2 receptor inhibitor HOE-140; conditions: 1 μM BK set as 100%
T3 construct: The cell strains used in the study were human primary vein endothelial cells (HPVEC) and human aortic smooth muscle cells (HASMC); endogenous in cells; host or cells: human primary vein endothelial cells (HPVEC) and human aortic smooth muscle cells (HASMC)
T3 sequence (P30411 1-391): T1 sequence (P30411 1-391)
Method: Two different cell lines were transferred into T-75 cell culture flask, and then the instructions of PG kit were strictly followed when cells have reached the appropriate density. Day 1. Cells were seeded in 24 well dishes with minimum medium and allowed to adhere overnight. Day 2. Cells were starved in the serum-free conditioned medium. Day 3. […] Cells were incubated at 37° C. for 1 h. The supernatant was collected after incubation for later use. Day 4. 24 well dishes were washed and then dyed for 45-90 min, and then the quantitative analysis was carried out.

[4] = tested on: human aortic smooth muscle cells (HASMC); assay: PG subtype secretion by EIA in HASMC; conditions: 10 nM, 1 μM BK set as 100%
[5] = tested on: human primary vein endothelial cells (HPVEC); assay: PG subtype secretion by EIA in HPVEC; conditions: 10 nM, 1 μM BK set as 100%
Method: In order to study of prostaglandin subtypes secretion triggered by activation of B2 receptor by these three compounds, human primary vein endothelial cells (HPVEC) and human aortic smooth muscle cells (HASMC) were used for PG secretion, following the same protocol above; 10 nM of these compounds, YLB-1, YLB-2, YLB-3 was added. […] These percentage values above were all calibrated with respect to bradykinin.

Compound | EC50 [1] [nM] | Emax ([1]; relative to BK, read-out: Emax) [%] | Emax ([1]; relative to BK) [%] | activation at 0.0001 µM [2] [%] | activation at 0.001 µM [2] [%] | activation at 0.01 µM [2] [%] | activation at 0.03 µM [2] [%] | activation at 0.1 µM [2] [%] | activation at 0.3 µM [2] [%] | activation at 1 µM [2] [%] | activation at 3 µM [2] [%] | activation at 10 µM [2] [%] | Relative PG Secretion Amount with 1 μM HOE-140 ([3]; agonist 0.1 nM + HOE-140 1 μM) [%] | Relative PG Secretion Amount with 1 μM HOE-140 ([3]; agonist 1 nM + HOE-140 1 μM) [%] | Relative PG Secretion Amount with 1 μM HOE-140 ([3]; agonist 10 nM + HOE-140 1 μM) [%] | Relative PG Secretion Amount with 1 μM HOE-140 ([3]; agonist 30 nM + HOE-140 1 μM) [%] | Relative PG Secretion Amount with 1 μM HOE-140 ([3]; agonist 100 nM + HOE-140 1 μM) [%] | Relative PG Secretion Amount with 1 μM HOE-140 ([3]; agonist 300 nM + HOE-140 1 μM) [%] | Relative PG Secretion Amount with 1 μM HOE-140 ([3]; agonist 1 μM + HOE-140 1 μM) [%] | Relative PG Secretion Amount with 1 μM HOE-140 ([3]; agonist 3 μM + HOE-140 1 μM) [%] | further results
CNC(=O)N1CCN(CCC(=O)NCC(=O)N(C)c2ccc(Cl)c(COc3cccc4c3nc(OC)n4Cc3ccccn3)c2Cl)CC1 [YLB-03, 4-{2-[({[2,4-Dichloro-3-(2-methoxy-1-pyridin-2-ylmethyl-1H-benzoimidazol-4-yloxymethyl)-phenyl]-methyl-carbamoyl}-methyl)-carbamoyl]-ethyl}-piperazine-1-carboxylic acid methylamide] | 26.2 ± 2.87 | 103 | 103.48 ± 9.06 | 0.44 ± 1.22 | 10.3 ± 2.3 | 47.3 ± 4.22 | ~55 | 71 ± 4.57 | 86.2 ± 8.51 | 85 ± 4.83 | 95.6 ± 7.21 | 103 ± 9.06 | 0.54 ± 3.59 | 2.65 ± 3.81 | 5.64 ± 4.05 | 4.90 ± 4.83 | 3.97 ± 2.75 | 0.48 ± 3.50 | 5.14 ± 2.67 | 7.33 ± 4.12 | Relative PG Secretion Amount with 1 μM HOE-140 ([3]; agonist 10 μM + HOE-140 1 μM): 26.08 ± 7.56%; PGD2 [4]: undetectable; PGE2 [4]: 27.83 ± 10.66%; PGF-2a [4]: 8.43 ± 3.57%; PGD2 [5]: undetectable; PGE2 [5]: 31.04 ± 8.49%; PGF-2a [5]: undetectable
COc1nc2c(OCc3c(Cl)ccc(N(C)C(=O)CNC(=O)CCc4ccc(NC(C)=O)nc4)c3Cl)cccc2n1Cc1ccccn1 [YLB-02] | 40.6 ± 4.19 | 70 | 70.44 ± 5.06 | 0 | 15.2 ± 3.36 | 26.4 ± 6.06 | ~40 | 65.6 ± 8.1 | 67.3 ± 7.02 | 66.9 ± 8.11 | 70.4 ± 5.06 | 65.5 ± 5.78 | 3.65 ± 2.77 | 0.21 ± 4.42 | 5.60 ± 3.43 | 3.33 ± 1.88 | 0.43 ± 4.16 | 1.05 ± 2.39 | 2.87 ± 3.04 | 4.25 ± 2.06 | Relative PG Secretion Amount with 1 μM HOE-140 ([3]; agonist 10 μM + HOE-140 1 μM): 10.1 ± 4.43%; PGD2 [4]: undetectable; PGE2 [4]: 26.33 ± 6.78%; PGF-2a [4]: 7.1 ± 3.41%; PGD2 [5]: undetectable; PGE2 [5]: 34.15 ± 9.54%; PGF-2a [5]: undetectable
RPPGFSPFR [BK, Bradykinin, reference compound] | – | – | – | – | – | – | – | – | – | – | – | – | – | – | – | – | – | – | – | – | Emax [1]: 101 ± 5.5%
